The assay relates to GBM8 human glioblastoma cells. In words: GBM8 viability assay (Cell Titer Glo). The assay is classed as cell-based. The settings on record: 72 h, luminescence. Here is the method:
Cell culture medium was prepared from a NSA proliferation kit (Neurocult) and NeuroCult supplements (Stemcell Tech Cat. #05751) and treated with 20 μL of 10 μg/mL rh EGF, 10 μL of 10 μg/mL rh bFGF and 10 μL of 0.2% Heparin. In this medium, human glioblastoma cells were cultured in ultra-low attachment tissue culture flasks until 1×10^6 cells ml was achieved (GBM4 and GBM8 are distinct neurosphere cell cultures derived from these human patient tissues). GBM4 and GBM8 cells were dissociated and 10 mL of media containing 4000 human glioblastoma cells per 90 μL were transferred to an ultra-low binding 96-well plate and incubated at 37° C. overnight. On the following day, 10 μL of a 1% DMSO solution of test compound in assay medium was added to wells containing the cell suspension and the mixture incubated at 37° C. for 3 days. At this time, the plate was removed from the incubator and allowed to reach room temperature. After about 30 minutes, 50 μL of Cell Titer Glo solution was added to each well and the plate shaken for 1 minute at low speed. After 10 minutes luminescence was recorded using a Tecan Safire2 reader.
Reduction in luminescence compared to DMSO only control wells was used to determine the percentage inhibition of cell growth. IC50s were calculated using the % inhibition of luminescence for serial dilutions of compounds fitted to a 4-parameter fit within the Prism (San Diego) curve fitting program. Tables 1 (compounds 3-188) and 2 (compounds 190-212) show the GBM4 IC50 and GBM8 IC50 for compounds described herein.
A general note: In ATP-based viability assays light output follows the ATP content of the culture.

Molecules are shown by their SMILES. pIC50: −log10 of the molar value.

Consider `CC(=O)NCCCNc1cc(C)nc(NC(=O)Nc2ccc3ccncc3c2)n1` [Compound 118, N-(3-((2-(3-(isoquinolin-7-yl)ureido)-6-methylpyrimidin-4-yl)amino)propyl)acetamide], for which, for the setting “Table 1, 3 days incubation”, the negative-log IC50 (pIC50) (as a rule, the IC50 on a negative log10 scale, so that one unit is a factor of ten) was > 6.30.
Still for that read-out and setting: in the case of `CC(=O)NCCNc1cc(C)nc(NC(=O)Nc2ccc3ccncc3c2)n1` [Compound 119, N-(2-((2-(3-(isoquinolin-7-yl)ureido)-6-methylpyrimidin-4-yl)amino)ethyl)acetamide] it was 5.30 to 6.30; in that of `Cc1cc(NCCNS(C)(=O)=O)nc(NC(=O)Nc2ccc3ccncc3c2)n1` [Compound 120, N-(2-((2-(3-(isoquinolin-7-yl)ureido)-6-methylpyrimidin-4-yl)amino)ethyl)methanesulfonamide], > 6.30; in that of `Cc1cc(NCCNS(C)(=O)=O)nc(NC(=O)Nc2ccc(Cl)c(Cl)c2)n1` [Compound 123, N-(2-((2-(3-(3,4-dichlorophenyl)ureido)-6-methylpyrimidin-4-yl)amino)ethyl)methanesulfonamide], > 6.30.
Consider `Cc1cc(NCCCN(C)C)nc(NC(=O)Nc2ccc(-c3ccccc3)cc2)n1` [Compound 125, 1-([1,1′-biphenyl]-4-yl)-3-(4-((3-(dimethylamino)propyl)amino)-6-methylpyrimidin-2-yl)urea], for which the negative-log IC50 (pIC50) (Table 1, 3 days incubation) is > 6.30.
On to `CCNc1cc(C)nc(NC(=O)Nc2ccc(-c3ccccc3)cc2)n1` [Compound 126, 1-([1,1′-biphenyl]-4-yl)-3-(4-(ethylamino)-6-methylpyrimidin-2-yl)urea], for which the pIC50 (Table 1, 3 days incubation) is > 6.30.
`Cc1cc(NCCCN(C)C)nc(NC(=O)Nc2cccc(Oc3ccccc3)c2)n1` [Compound 128, 1-(4-((3-(dimethylamino)propyl)amino)-6-methylpyrimidin-2-yl)-3-(3-phenoxyphenyl)urea] had a pIC50 (Table 1, 3 days incubation) of 5.30 to 6.30.
On the same count and under the same terms, in the case of `Cc1cc(NCCCN(C)C)nc(NC(=O)Nc2cccc(-c3ccccc3)c2)n1` [Compound 131, 1-([1,1′-biphenyl]-3-yl)-3-(4-((3-(dimethylamino)propyl)amino)-6-methylpyrimidin-2-yl)urea] it was 5.30 to 6.30; in that of `Cc1cc(NCCCN(C)C)nc(NC(=O)Nc2ccc(Oc3ccccc3)cc2)n1` [Compound 133, 1-(4-((3-(dimethylamino)propyl)amino)-6-methylpyrimidin-2-yl)-3-(4-phenoxyphenyl)urea], > 6.30; in that of `CCNc1cc(C)nc(NC(=O)Nc2ccc(Oc3ccccc3)cc2)n1` [Compound 134, 1-(4-(ethylamino)-6-methylpyrimidin-2-yl)-3-(4-phenoxyphenyl)urea], > 6.30.
The same measure, in the same setting: next, `Cc1cc(NCCCN(C)C)nc(NC(=O)Nc2ccc(OC(C)C)cc2)n1` [Compound 136, 1-(4-((3-(dimethylamino)propyl)amino)-6-methylpyrimidin-2-yl)-3-(4-isopropoxyphenyl)urea]: > 6.30; `Cc1cc(NCCN(C)C)nc(NC(=O)Nc2ccc(OC(C)C)cc2)n1` [Compound 137, 1-(4-((2-(dimethylamino)ethyl)amino)-6-methylpyrimidin-2-yl)-3-(4-isopropoxyphenyl)urea]: > 6.30; `Cc1cc(NCCNS(C)(=O)=O)nc(NC(=O)Nc2ccc(OC(C)C)cc2)n1` [Compound 139, N-(2-((2-(3-(4-isopropoxyphenyl)ureido)-6-methylpyrimidin-4-yl)amino)ethyl)methanesulfonamide]: > 6.30.
The same measure, in the same setting: in the case of `CC(=O)NCCNc1cc(C)nc(NC(=O)Nc2ccc(OC(C)C)cc2)n1` [Compound 140, N-(2-((2-(3-(4-isopropoxyphenyl)ureido)-6-methylpyrimidin-4-yl)amino)ethyl)acetamide] it was > 6.30.
As for `CC(=O)NCCCNc1cc(C)nc(NC(=O)Nc2ccc(OC(C)C)cc2)n1` [Compound 142, N-(3-((2-(3-(4-isopropoxyphenyl)ureido)-6-methylpyrimidin-4-yl)amino)propyl)acetamide], the pIC50 (Table 1, 3 days incubation) is > 6.30.
For the molecule `CNc1cc(C)nc(NC(=O)Nc2ccc(OC(F)(F)F)cc2)n1` [Compound 144, 1-(4-methyl-6-(methylamino)pyrimidin-2-yl)-3-(4-(trifluoromethoxy)phenyl)urea], the pIC50 (Table 1, 3 days incubation) is > 6.30.
In the case of `Cc1cc(NCCO)nc(NC(=O)Nc2ccc(OC(F)(F)F)cc2)n1` [Compound 145, 1-(4-((2-hydroxyethyl)amino)-6-methylpyrimidin-2-yl)-3-(4-(trifluoromethoxy)phenyl)urea], where the note is “Table 1, 3 days incubation”, the pIC50 is > 6.30.
The same measure, in the same setting: in the case of `CONc1cc(C)nc(NC(=O)Nc2ccc(OC(F)(F)F)cc2)n1` [Compound 146, 1-(4-(methoxyamino)-6-methylpyrimidin-2-yl)-3-(4-(trifluoromethoxy)phenyl)urea] it was 5.30 to 6.30; in that of `Cc1cc(NO)nc(NC(=O)Nc2ccc(OC(F)(F)F)cc2)n1` [Compound 147, 1-(4-(hydroxyamino)-6-methylpyrimidin-2-yl)-3-(4-(trifluoromethoxy)phenyl)urea], > 6.30.
Same read-out and setting: next, `Cc1cc(NCCCN(C)C)nc(NC(=O)Nc2ccc(OC(F)(F)F)c(Cl)c2)n1` [Compound 149, 1-(3-chloro-4-(trifluoromethoxy)phenyl)-3-(4-((3-(dimethylamino)propyl)amino)-6-methylpyrimidin-2-yl)urea]: > 6.30; `Cc1cc(NCCN)nc(NC(=O)Nc2ccc(OC(F)(F)F)c(Cl)c2)n1` [Compound 150, 1-(4-((2-aminoethyl)amino)-6-methylpyrimidin-2-yl)-3-(3-chloro-4-(trifluoromethoxy)phenyl)urea]: > 6.30.
Still for that read-out and setting: in the case of `Cc1cc(NCCNS(C)(=O)=O)nc(NC(=O)Nc2ccc(OC(F)(F)F)c(Cl)c2)n1` [Compound 151, N-(2-((2-(3-(3-chloro-4-(trifluoromethoxy)phenyl)ureido)-6-methylpyrimidin-4-yl)amino)ethyl)methanesulfonamide] it was > 6.30.
As for `Cc1cc(NCCCN(C)C)nc(NC(=O)Nc2ccc(OC(F)(F)F)c(C)c2)n1` [Compound 153, 1-(4-((3-(dimethylamino)propyl)amino)-6-methylpyrimidin-2-yl)-3-(3-methyl-4-(trifluoromethoxy)phenyl)urea], the pIC50 (Table 1, 3 days incubation) is > 6.30.
Same read-out and setting: in the case of `Cc1cc(NCCCN)nc(NC(=O)Nc2ccc(C(=O)c3ccccc3)cc2)n1` [Compound 155, 1-(4-((3-aminopropyl)amino)-6-methylpyrimidin-2-yl)-3-(4-benzoylphenyl)urea] it was > 6.30.
In turn, `CN(C)CCCNc1ccnc(NC(=O)Nc2ccc(Cl)c(Cl)c2)n1` [Compound 157, 1-(3,4-dichlorophenyl)-3-(4-((3-(dimethylamino)propyl)amino)pyrimidin-2-yl)urea] showed a pIC50 (Table 1, 3 days incubation) of 5.30 to 6.30.
Turning to `O=C(Nc1ccc(Cl)c(Cl)c1)Nc1nccc(NO)n1` [Compound 158, 1-(3,4-dichlorophenyl)-3-(4-(hydroxyamino)pyrimidin-2-yl)urea], the pIC50 (Table 1, 3 days incubation) is 5.30 to 6.30.
The same measure, in the same setting: next, `CN(C)CCCNc1ccnc(NC(=O)Nc2ccc3ccccc3c2)n1` [Compound 160, 1-(4-((3-(dimethylamino)propyl)amino)pyrimidin-2-yl)-3-(naphthalen-2-yl)urea]: > 6.30; `O=C(Nc1ccc2ccccc2c1)Nc1nccc(NO)n1` [Compound 161, 1-(4-(hydroxyamino)pyrimidin-2-yl)-3-(naphthalen-2-yl)urea]: 5.30 to 6.30.
Still for that read-out and setting: next, `O=C(Nc1ccc(OC(F)(F)F)cc1)Nc1nccc(Cl)n1` [Compound 162, 1-(4-Chloropyrimidin-2-yl)-3-(4-(trifluoromethoxy)phenyl)urea]: > 6.30.
Same read-out and setting: in the case of `CN(C)CCCNc1ccnc(NC(=O)Nc2ccc(OC(F)(F)F)cc2)n1` [Compound 163, 1-(4-((3-(dimethylamino)propyl)amino)pyrimidin-2-yl)-3-(4-(trifluoromethoxy)phenyl)urea] it was 5.30 to 6.30.
In the case of `CN(C)CCCNc1nc(NC(=O)Nc2ccc(Cl)c(Cl)c2)ncc1F` [Compound 168, 1-(3,4-dichlorophenyl)-3-(4-((3-(dimethylamino)propyl)amino)-5-fluoropyrimidin-2-yl)urea], under “Table 1, 3 days incubation”, the pIC50 is 5.30 to 6.30.
On the same count and under the same terms, in the case of `CNCCCNc1cc(C(C)C)nc(NC(=O)Nc2ccc(Cl)c(Cl)c2)n1` [Compound 184, 1-(3,4-dichlorophenyl)-3-(4-isopropyl-6-((3-(methyl-amino)propyl)amino)pyrimidin-2-yl)urea] it was 5.30 to 6.30; in that of `CC(C)c1cc(NO)nc(NC(=O)Nc2ccc(Cl)c(Cl)c2)n1` [Compound 185, 1-(3,4-dichlorophenyl)-3-(4-(hydroxyamino)-6-isopropyl-pyrimidin-2-yl)urea], 5.30 to 6.30; in that of `CC(C)c1cc(NO)nc(NC(=O)Nc2ccc3ccccc3c2)n1` [Compound 187, 1-(4-(hydroxyamino)-6-isopropylpyrimidin-2-yl)-3-(naphthalen-2-yl)urea], 5.30 to 6.30.
As to `CC(C)c1cc(NCCCN(C)C)nc(NC(=O)Nc2ccc3ccccc3c2)n1` [Compound 188, 1-(4-((3-(dimethylamino)propyl)amino)-6-isopropylpyrimidin-2-yl)-3-(naphthalen-2-yl)urea], the negative-log IC50 (pIC50) (Table 1, 3 days incubation) was 5.30 to 6.30.
The molecule `CC(C)c1cc(N)nc(NC(=O)Nc2ccc3ccccc3c2)n1` [Compound 190, 1-(4-amino-6-isopropylpyrimidin-2-yl)-3-(naphthalen-2-yl)urea] gave a pIC50 (Table 2, 3 days incubation) of 4.52 to 5.30.
